Data taken from US20240342121A1, “THE USE OF BETA-HYDROXYBUTYRATES FOR THE TREATMENT OR PREVENTION OF ANEURYSMS AND DISSECTIONS” (priority 2021, published 2024).
Entries after “also recorded” stand apart in the source; their conditions may differ.

Experiments:
[1] = tested on: angiotensin II (AII)-induced AAA; assay: AII-induced AAA mouse model, post-treatment; assay type: in vivo
From the text: To determine if senescence is a major cause of aneurysm development, the association between senescence and aneurysms using the angiotensin II (AII)-induced AAA model was investigated. Mice were infused AII for four weeks using osmotic mini-pump implantation into Apoe^−/− transgenic mouse.
To investigate the therapeutic potential of ketotherapy for abdominal aortic aneurysm (AAA), Ketogenic-diet (KD) and Ketone-ester (KE) were provided to angiotensin II (AII)-induced mouse model of AAA (FIG. 6). […] After completing AII infusion, the mice were post-treated with KD and KE for two to four weeks.
To investigate the time-dependent reduction of aorta diameter, the inner diameter of the aorta using ultrasound analysis was measured.

senescent SMCs = assay: Cellular viability (cytotoxicity) assay of senescent and normal SMCs; assay type: cell-based; conditions: premature senescence by H2O2, Arsenite or Nutlin 3a, FIG. 2A
Procedure: FIGS. 2A-2L. (a) Cytotoxicity assay of normal smooth muscle cells (NS) and senescent smooth muscle cells (SMCs). Replicative senescent SMCs (RS) and premature senescent SMCs, stimulated by H2O2 (HP), arsenic (Ars), and Nutlin 3a (Nut) treatment were treated with βHB, s-βHB, and ABT-737. (b) Flow cytometry analysis of apoptosis by βHB or s-βHB in radiation (10 Gy)-induced senescent SMC. (c) Quantitation of apoptotic cell and senescent cell after treating βHB and s-βHB in radiation-induced senescent SMC. (d) Representative aorta image of AII-infused mice with post-treatment of ABT-737, βHB and s-βHB. (e) External diameter of abdominal aorta infused with AII and post-treated with ABT-737 βHB and s-βHB. (f) SA-βGal activity assay of the whole aorta infused with AII, and post-treated with ABT-737, KD, or KE. (g) Quantitation of senescent area on aorta of AII-infused mice, and post-treated with KD, KE and ABT-737. (h) TUNEL assay on the abdominal aorta of AII infused mice, and treated with ABT-737, βHB, or s-βHB. SM-α Actin (SMA) and DAPI are co-stained after TUNEL reaction. […]
The clearance of senescent cells that accumulate during the aneurysm development is required to reduce the volume of aneurysm plaque. Thus, the senotherapeutic potential of βHB to reverse AAA progression was evaluated. […]

normal SMCs (NC) = assay: Caspase 3 activity assay on normal SMCs; assay type: cell-based; conditions: FIG. 2I
Procedure: (§1) FIGS. 2A-2L. (a) Cytotoxicity assay of normal smooth muscle cells (NS) and senescent smooth muscle cells (SMCs). Replicative senescent SMCs (RS) and premature senescent SMCs, stimulated by H2O2 (HP), arsenic (Ars), and Nutlin 3a (Nut) treatment were treated with βHB, s-βHB, and ABT-737. (b) Flow cytometry analysis of apoptosis by βHB or s-βHB in radiation (10 Gy)-induced senescent SMC. (c) Quantitation of apoptotic cell and senescent cell after treating βHB and s-βHB in radiation-induced senescent SMC. (d) Representative aorta image of AII-infused mice with post-treatment of ABT-737, βHB and s-βHB. (e) External diameter of abdominal aorta infused with AII and post-treated with ABT-737 βHB and s-βHB. (f) SA-βGal activity assay of the whole aorta infused with AII, and post-treated with ABT-737, KD, or KE. (g) Quantitation of senescent area on aorta of AII-infused mice, and post-treated with KD, KE and ABT-737. (h) TUNEL assay on the abdominal aorta of AII infused mice, and treated with ABT-737, βHB, or s-βHB. SM-α Actin (SMA) and DAPI are co-stained after TUNEL reaction. (i) Caspase 3 activity assay on normal SMCs (NC) treated with βHB, or s-βHB, and ABT-737 comparing to normal cells pretreated with Nutlin-3a. (j) Caspase 3 activity assay on senescent SMCs (SNC) treated with βHB, or s-βHB, and ABT-737 compared to senescent cells pretreated with pifithrin-α. (k) Western blot analysis for p53 and puma expression on abdominal aorta tissue from mice treated with AII or KE. (I) Immunohistochemistry staining for puma expression on abdominal aorta infused by AII and post-treated with KE.
To overcome the anti-apoptotic barrier of senescence cells, senolytics usually target p53/Bcl2 cascades. Moreover, p53 is considered as a barrier to prevent apoptosis in senescence cells. Therefore, it was investigated if βHB-mediated apoptosis is p53 dependent. […] To further validate p53 dependent apoptosis on AAA, p53 activation and puma expression were investigated. […] In addition, inflammatory response accompanying the apoptosis of senescence cells was observed specifically in the abdominal aorta tissue, while systemic inflammation decreased during ketotherapy (FIGS. 10A-F). […] Ketotherapy can lower the blood pressure caused by AII infusion, which is not the case with ABT-737 (FIGS. 10H-J).

senescent SMCs (SNC) = assay: Caspase 3 activity assay on senescent SMCs; assay type: cell-based; conditions: p53 inhibition by pifithirin-α, FIG. 2J
Procedure: as §1, with “(k) Western blot analysis for p53 and puma expression on abdominal aorta tissue from mice treated with AII or KE. (I) Immunohistochemistry staining for puma expression on abdominal aorta infused by AII and post-treated with KE.” left out

[2] = in vivo
From the text: We established an in vivo tolerance test of βHB and s-βHB (FIGS. 9A and 9B). […] The reduction of the inner diameter of the aortic wall is also dramatic in the treatment of s-βHB in FIG. 9F (Two-way ANOVA, ^###P<0.005, n=10).

[3] = tested on: lysine β-hydroxybutyrylation (KβHB); assay: Immunoblotting of lysine β-hydroxybutyrylation (KβHB) in SMCs; assay type: cell-based; conditions: FIG. 15A
From the text: FIGS. 15A-15B show immunoblotting of lysine β-hydroxybutyrylation (KβHB) on whole cell lysate (WCL) and fractionated lysate. (b) Immunofluorescent staining of SMA, KβHB, and DAPI on abdominal aorta.
Since epigenetic regulation directly affects the activity of transcriptional factors, such as Oct4, we evaluated if βHB is related to histone remodeling. βHB is a substrate of acyltransferase resulting in β-hydroxybutyrylation, a unique posttranslational modification that controls protein activity or gene expression. We hypothesize that β-hydroxybutyrylation on histone induces histone remodeling facilitating cellular reprogramming. To determine that β-hydroxybutyrylation (KβHB) is observed in senescent SMCs or aneurysms, we applied a specific antibody detecting KβHB modified protein. […] Together, it is supposed that β-hydroxybutyryl histone triggers the reprogramming process of senescent SMCs by regulating Oct4, which is overexpressed in aneurysms.

[4] = tested on: angiotensin II (AII)-induced AAA; assay: AII-induced AAA mouse model, post-treatment; assay type: in vivo; conditions: injection every other day for two weeks, FIG. 2E

## C[C@@H](O)CC(=O)O [βHB, (R)-3-Hydroxybutyrate]
[1]; FIG. 2H
  TUNEL assay, apoptosis of senescent plaque in the aneurysm: induced targeted apoptosis of senescent plaque
[1]; FIG. 3H, FIG. 18A
  abdominal aorta stiffness, Pulse Wave Velocity (PWV): ameliorated vascular stiffness; also recorded: reversed aneurysm-associated aortic stiffness
[1]; in vivo, immunofluorescent staining, FIG. 15B
  KβHB modified protein in abdominal aorta: increases KβHB modified protein in nuclear
[1]; incidence of AAA by angiotensin II infusion 67%, n=10, FIG. 9D
  AAA rate after post-treating: 47%
[1]; injected every other day for two weeks, FIG. 2D
  AAA on whole aorta images: successfully rescued
[1]; post-treatment, FIGS. 17A-17B
  myofibroblast, SM α-Actin and FSP co-staining in aortic wall: increases
Senescent SMCs
  number of senescent SMCs versus normal SMCs: selectively reduced the number of senescent SMCs and not normal SMCs; also recorded: slightly reduced
Normal SMCs (NC); after p53 stabilization by Nutlin 3a
  apoptosis in normal cells after p53 stabilization: triggers apoptosis
Normal SMCs (NC); without Nutlin 3a
  apoptosis in normal cells (NC): did not induce apoptosis
Senescent SMCs (SNC)
  apoptosis with p53 inhibition: did not induce apoptosis
[2]
  half-life: 50 min
  metabolic elimination rate: faster than s-βHB
[3]
  KβHB modified proteins, Western blot: increases KβHB modified proteins
[4]
  external diameter of the abdominal aorta: significantly reduced
